We go through four compounds from ChEMBL document CHEMBL1128963, “A non-peptide ligand for the somatostatin receptor having a benzodiazepinone structure” (Bioorg Med Chem Lett, 1996).

The structures appear in SMILES notation.

The target in the assay is Somatostatin receptor. Kind of assay: Compound was tested for its inhibitory effect against somatostatin receptor in rat cortex membrane using [125I]Tyr3-octreotide as the radioligand. It counts as cell membranes.
Broadly, the IC50 is the midpoint of a concentration-inhibition curve. A higher IC50 goes with weaker potency. Regarding `NCCCCCN1C(=O)C(Cc2c[nH]c3ccccc23)N(C(=O)c2ccccc2)Cc2ccccc21` (single isomer, unassigned; (-)), the IC50 is 6.5 µM and the “Log Ki” value is -5.2. In turn, `C[C@H](N)C(=O)NCC(=O)N[C@@H]1CSSC[C@@H](C(=O)O)NC(=O)[C@H](CO)NC(=O)[C@@H]([C@@H](C)O)NC(=O)[C@H](Cc2ccccc2)NC(=O)[C@@H]([C@@H](C)O)NC(=O)[C@H](CCCCN)NC(=O)[C@H](Cc2c[nH]c3ccccc23)NC(=O)[C@H](Cc2ccccc2)NC(=O)[C@@H](Cc2ccccc2)NC(=O)[C@H](CC(N)=O)NC(=O)[C@@H](CCCCN)NC1=O` [SOMATOSTATIN RECEPTOR LIGAND] displayed an IC50 of 0.00043 µM. On to `NCCCCCN1C(=O)C(Cc2c[nH]c3ccccc23)N(C(=O)c2ccccc2)Cc2ccccc21` (stereo in doubt; 2), for which the 50% inhibitory concentration (IC50) was determined as 7 µM and the “Log Ki” value is reported as -5.1. In turn, `NCCCCCN1C(=O)C(Cc2c[nH]c3ccccc23)N(C(=O)c2ccccc2)Cc2ccccc21` (stereo in doubt; (+)2) showed an IC50 of 8.2 µM.
